Key:
MDA-MB-435 = assay: panel of 60 human tumor cell lines, growth inhibition (Melanoma)
SK-MEL-2 = assay: as above
SF-539 = assay: panel of 60 human tumor cell lines, growth inhibition (CNS Cancer)
U251 = assay: as above; conditions: for Percent Growth: U251
HCT-116 = assay: panel of 60 human tumor cell lines, growth inhibition (Colon Cancer); conditions: for Percent Growth: HCT-116; for GI50: HCT-116, HCT-116
HT29 = assay: as above; conditions: for Percent Growth: HT29
KM12 = assay: as above
786-0 = assay: panel of 60 human tumor cell lines, growth inhibition (Renal Cancer)
A498 = assay: as above
SN12C = assay: as above
MDA-MB-231/ATCC = assay: panel of 60 human tumor cell lines, growth inhibition (Breast Cancer); conditions: for Percent Growth: MDA-MB-231/ATCC
OVCAR-5 = assay: panel of 60 human tumor cell lines, growth inhibition (Ovarian Cancer)
NCI/ADR-RES = assay: as above
PC-3 = assay: panel of 60 human tumor cell lines, growth inhibition (Prostate Cancer)
DU-145 = assay: as above
HOP-62 = assay: panel of 60 human tumor cell lines, growth inhibition (Non-Small Cell Lung Cancer)
NCI-H322M = assay: as above
NCI-H460 = assay: as above

C=C1C(=O)O[C@H]2[C@H]1CC/C(COC(=O)NCCc1ccccn1)=C\CC[C@@]1(C)O[C@@H]21 [JVM 61, ((1aR,7aS,10aS,10bS,E)-1a-methyl-8-methylene-9-oxo-1a,2,3,6,7,7a,8,9,10a,10b-decahydrooxireno[2′,3′:9,10]cyclodeca[1,2-b]furan-5-yl)methyl-(2-(pyridin-2-yl)ethyl)carbamate]
GI50 (MDA-MB-435; Homo sapiens, MDA-MB-435): 6.01 µM
CC50 (MDA-MB-435; Homo sapiens, MDA-MB-435, read-out: LC50): 82.4 µM
IC (TGI) (MDA-MB-435; Homo sapiens, MDA-MB-435, read-out: TGI): 24.7 µM
Percent Growth (MDA-MB-435; MDA-MB-435, Log10 Concentration −4.0): −58%
Percent Growth (MDA-MB-435; MDA-MB-435, Log10 Concentration −5.0): 38%
Percent Growth (MDA-MB-435; MDA-MB-435, Log10 Concentration −6.0): 94%
Percent Growth (MDA-MB-435; MDA-MB-435, Log10 Concentration −7.0): 94%
Percent Growth (MDA-MB-435; MDA-MB-435, Log10 Concentration −8.0): 97%
GI50 (SK-MEL-2; Homo sapiens, SK-MEL-2): 15.1 µM
CC50 (SK-MEL-2; Homo sapiens, SK-MEL-2, read-out: LC50): 69 µM
IC (TGI) (SK-MEL-2; Homo sapiens, SK-MEL-2, read-out: TGI): 32.3 µM
Percent Growth (SK-MEL-2; SK-MEL-2, Log10 Concentration −4.0): −74%
Percent Growth (SK-MEL-2; SK-MEL-2, Log10 Concentration −5.0): 77%
Percent Growth (SK-MEL-2; SK-MEL-2, Log10 Concentration −6.0): 112%
Percent Growth (SK-MEL-2; SK-MEL-2, Log10 Concentration −7.0): 110%
Percent Growth (SK-MEL-2; SK-MEL-2, Log10 Concentration −8.0): 109%
GI50 (SF-539; Homo sapiens, SF-539): 5.77 µM
CC50 (SF-539; Homo sapiens, SF-539, read-out: LC50): 43.2 µM
IC (TGI) (SF-539; Homo sapiens, SF-539, read-out: TGI): 15.4 µM
Percent Growth (SF-539; SF-539, Log10 Concentration −4.0): −99%
Percent Growth (SF-539; SF-539, Log10 Concentration −5.0): 36%
Percent Growth (SF-539; SF-539, Log10 Concentration −6.0): 96%
Percent Growth (SF-539; SF-539, Log10 Concentration −7.0): 97%
Percent Growth (SF-539; SF-539, Log10 Concentration −8.0): 103%
GI50 (U251; Homo sapiens, U-251): 12.5 µM
CC50 (U251; Homo sapiens, U-251, read-out: LC50): 55.6 µM
IC (TGI) (U251; Homo sapiens, U-251, read-out: TGI): 25.4 µM
Percent Growth (U251; Log10 Concentration −4.0): −89%
Percent Growth (U251; Log10 Concentration −5.0): 65%
Percent Growth (U251; Log10 Concentration −6.0): 93%
Percent Growth (U251; Log10 Concentration −7.0): 91%
Percent Growth (U251; Log10 Concentration −8.0): 97%
Percent Growth (HCT-116; Log10 Concentration −4.0): −99%
Percent Growth (HCT-116; Log10 Concentration −5.0): −33%
Percent Growth (HCT-116; Log10 Concentration −6.0): 82%
Percent Growth (HCT-116; Log10 Concentration −7.0): 102%
Percent Growth (HCT-116; Log10 Concentration −8.0): 99%
GI50 (HCT-116; Homo sapiens): 1.59 µM
GI50 (HCT-116; Homo sapiens, 5-dose assay): 1.89 µM
CC50 (HCT-116; Homo sapiens, HCT-116, read-out: LC50): 17.9 µM
IC (TGI) (HCT-116; Homo sapiens, HCT-116, read-out: TGI): 5.12 µM
Percent Growth (HT29; Log10 Concentration −4.0): −78%
Percent Growth (HT29; Log10 Concentration −5.0): 24%
Percent Growth (HT29; Log10 Concentration −6.0): 110%
Percent Growth (HT29; Log10 Concentration −7.0): 106%
Percent Growth (HT29; Log10 Concentration −8.0): 104%
GI50 (HT29; Homo sapiens, HT-29): 4.69 µM
CC50 (HT29; Homo sapiens, HT-29, read-out: LC50): 53.1 µM
IC (TGI) (HT29; Homo sapiens, HT-29, read-out: TGI): 17.2 µM
GI50 (KM12; Homo sapiens, KM12): 16.5 µM
CC50 (KM12; Homo sapiens, KM12, read-out: LC50): 62.2 µM
TGI (KM12; KM12): 3.21E−5
Percent Growth (KM12; KM12, Log10 Concentration −4.0): −86%
Percent Growth (KM12; KM12, Log10 Concentration −5.0): 88%
Percent Growth (KM12; KM12, Log10 Concentration −6.0): 103%
Percent Growth (KM12; KM12, Log10 Concentration −7.0): 107%
Percent Growth (KM12; KM12, Log10 Concentration −8.0): 105%
Percent Growth (786-0; 786-0, Log10 Concentration −4.0): −93%
Percent Growth (786-0; 786-0, Log10 Concentration −5.0): 15%
Percent Growth (786-0; 786-0, Log10 Concentration −6.0): 96%
Percent Growth (786-0; 786-0, Log10 Concentration −7.0): 101%
Percent Growth (786-0; 786-0, Log10 Concentration −8.0): 101%
GI50 (786-0; Homo sapiens, 786-0): 3.7 µM
CC50 (786-0; Homo sapiens, 786-0, read-out: LC50): 39.8 µM
IC (TGI) (786-0; Homo sapiens, 786-0, read-out: TGI): 13.8 µM
Percent Growth (A498; A498, Log10 Concentration −4.0): −97%
Percent Growth (A498; A498, Log10 Concentration −5.0): 55%
Percent Growth (A498; A498, Log10 Concentration −6.0): 87%
Percent Growth (A498; A498, Log10 Concentration −8.0): 87%
GI50 (A498; Homo sapiens, A498): 16.8 µM
CC50 (A498; Homo sapiens, A498, read-out: LC50): 49.1 µM
IC (TGI) (A498; Homo sapiens, A498, read-out: TGI): 25.1 µM
GI50 (SN12C; Homo sapiens): 6.61 µM
CC50 (SN12C; Homo sapiens, read-out: LC50): 66.3 µM
IC (TGI) (SN12C; Homo sapiens, read-out: TGI): 25.4 µM
Percent Growth (SN12C; Log10 Concentration −4.0): −70%
Percent Growth (SN12C; Log10 Concentration −5.0): 41%
Percent Growth (SN12C; Log10 Concentration −6.0): 91%
Percent Growth (SN12C; Log10 Concentration −7.0): 92%
Percent Growth (SN12C; Log10 Concentration −8.0): 95%
GI50 (MDA-MB-231/ATCC; Homo sapiens, MDA-MB-231): 11.4 µM
CC50 (MDA-MB-231/ATCC; Homo sapiens, MDA-MB-231, read-out: LC50): 56.4 µM
IC (TGI) (MDA-MB-231/ATCC; Homo sapiens, MDA-MB-231, read-out: TGI): 25.4 µM
Percent Growth (MDA-MB-231/ATCC; Log10 Concentration −4.0): −86%
Percent Growth (MDA-MB-231/ATCC; Log10 Concentration −5.0): 58%
Percent Growth (MDA-MB-231/ATCC; Log10 Concentration −6.0): 96%
Percent Growth (MDA-MB-231/ATCC; Log10 Concentration −7.0): 100%
Percent Growth (MDA-MB-231/ATCC; Log10 Concentration −8.0): 103%
GI50 (OVCAR-5; Homo sapiens, OVCAR-5): 10.2 µM
CC50 (OVCAR-5; Homo sapiens, OVCAR-5, read-out: LC50): 49.5 µM
IC (TGI) (OVCAR-5; Homo sapiens, OVCAR-5, read-out: TGI): 22.5 µM
Percent Growth (OVCAR-5; OVCAR-5, Log10 Concentration −4.0): −94%
Percent Growth (OVCAR-5; OVCAR-5, Log10 Concentration −5.0): 51%
Percent Growth (OVCAR-5; OVCAR-5, Log10 Concentration −6.0): 96%
Percent Growth (OVCAR-5; OVCAR-5, Log10 Concentration −7.0): 97%
Percent Growth (OVCAR-5; OVCAR-5, Log10 Concentration −8.0): 107%
GI50 (NCI/ADR-RES; Homo sapiens): 20.1 µM
CC50 (NCI/ADR-RES; Homo sapiens, read-out: LC50): > 100 µM
IC (TGI) (NCI/ADR-RES; Homo sapiens, read-out: TGI): 54.7 µM
Percent Growth (NCI/ADR-RES; Log10 Concentration −4.0): −30%
Percent Growth (NCI/ADR-RES; Log10 Concentration −5.0): 85%
Percent Growth (NCI/ADR-RES; Log10 Concentration −6.0): 106%
Percent Growth (NCI/ADR-RES; Log10 Concentration −7.0): 106%
Percent Growth (NCI/ADR-RES; Log10 Concentration −8.0): 105%
GI50 (PC-3; Homo sapiens, PC-3): 15.6 µM
CC50 (PC-3; Homo sapiens, PC-3, read-out: LC50): 76.8 µM
IC (TGI) (PC-3; Homo sapiens, PC-3, read-out: TGI): 35.7 µM
Percent Growth (PC-3; PC-3, Log10 Concentration −4.0): −67%
Percent Growth (PC-3; PC-3, Log10 Concentration −5.0): 83%
Percent Growth (PC-3; PC-3, Log10 Concentration −6.0): 97%
Percent Growth (PC-3; PC-3, Log10 Concentration −7.0): 95%
Percent Growth (PC-3; PC-3, Log10 Concentration −8.0): 98%
Percent Growth (DU-145; DU-145, Log10 Concentration −4.0): −87%
Percent Growth (DU-145; DU-145, Log10 Concentration −5.0): 26%
Percent Growth (DU-145; DU-145, Log10 Concentration −6.0): 97%
Percent Growth (DU-145; DU-145, Log10 Concentration −7.0): 108%
Percent Growth (DU-145; DU-145, Log10 Concentration −8.0): 102%
GI50 (DU-145; Homo sapiens, DU-145): 4.59 µM
CC50 (DU-145; Homo sapiens, DU-145, read-out: LC50): 47 µM
IC (TGI) (DU-145; Homo sapiens, DU-145, read-out: TGI): 16.9 µM
Percent Growth (HOP-62; HOP-62, Log10 Concentration −4.0): −65%
Percent Growth (HOP-62; HOP-62, Log10 Concentration −5.0): 91%
Percent Growth (HOP-62; HOP-62, Log10 Concentration −6.0): 108%
Percent Growth (HOP-62; HOP-62, Log10 Concentration −7.0): 102%
Percent Growth (HOP-62; HOP-62, Log10 Concentration −8.0): 99%
GI50 (HOP-62; Homo sapiens, HOP-62): 18.4 µM
CC50 (HOP-62; Homo sapiens, HOP-62, read-out: LC50): 79.7 µM
IC (TGI) (HOP-62; Homo sapiens, HOP-62, read-out: TGI): 38.3 µM
GI50 (NCI-H322M; Homo sapiens): 22.5 µM
CC50 (NCI-H322M; Homo sapiens, read-out: LC50): > 100 µM
IC (TGI) (NCI-H322M; Homo sapiens, read-out: TGI): 63.4 µM
Percent Growth (NCI-H322M; Log10 Concentration −4.0): −18%
Percent Growth (NCI-H322M; Log10 Concentration −5.0): 87%
Percent Growth (NCI-H322M; Log10 Concentration −6.0): 105%
Percent Growth (NCI-H322M; Log10 Concentration −7.0): 103%
Percent Growth (NCI-H322M; Log10 Concentration −8.0): 106%
GI50 (NCI-H460; Homo sapiens, NCI-H460): 14.4 µM
CC50 (NCI-H460; Homo sapiens, NCI-H460, read-out: LC50): 97.4 µM
IC (TGI) (NCI-H460; Homo sapiens, NCI-H460, read-out: TGI): 37.5 µM
Percent Growth (NCI-H460; NCI-H460, Log10 Concentration −4.0): −51%
Percent Growth (NCI-H460; NCI-H460, Log10 Concentration −5.0): 69%
Percent Growth (NCI-H460; NCI-H460, Log10 Concentration −6.0): 102%
Percent Growth (NCI-H460; NCI-H460, Log10 Concentration −7.0): 102%
Percent Growth (NCI-H460; NCI-H460, Log10 Concentration −8.0): 104%
